The subject of one data set is HEK293. Description: Cytotoxicity against HEK293 cells assessed as cell damage at 50 uM incubated for 48 hrs by fluorometric method. Format: toxicity, cell-based. Conditions: human, hek293, 48 h.
Data set [1] deals with T1, 3-hydroxyacyl-CoA dehydrogenase type-2 (Homo sapiens, UniProt Q99714).
T1 sequence (Q99714 whole entry): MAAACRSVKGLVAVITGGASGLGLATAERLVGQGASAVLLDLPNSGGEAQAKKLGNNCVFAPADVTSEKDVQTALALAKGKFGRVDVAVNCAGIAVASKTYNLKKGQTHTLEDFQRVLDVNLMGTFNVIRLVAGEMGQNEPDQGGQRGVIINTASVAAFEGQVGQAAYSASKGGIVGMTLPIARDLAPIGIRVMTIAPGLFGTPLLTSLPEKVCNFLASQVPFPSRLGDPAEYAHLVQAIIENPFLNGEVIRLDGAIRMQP
Description: Inhibition of recombinant 17beta-HSD10 (unknown origin) using ALLOP as substrate and NAD+ as cofactor preincubated for 5 mins followed by substrate addition and measured after 20 mins by fluorometric assay.

In data set [2] the target is T1, 3-hydroxyacyl-CoA dehydrogenase type-2. Briefly: Mixed type inhibition of recombinant 17beta-HSD10 (unknown origin) using E2 as substrate and NAD+ as cofactor preincubated for 5 mins followed by substrate addition and measured after 20 mins by fluorometric assay.
The target is the same in data set [3]. Briefly: Inhibition of recombinant 17beta-HSD10 (unknown origin) using E2 as substrate and NAD+ as cofactor preincubated for 5 mins followed by substrate addition and measured after 20 mins by fluorometric assay.

`CC(=O)Nc1ccc2nc(NCc3ccc(O)c(C(F)(F)F)c3)sc2c1`: the Activity result in the data set with HEK293 is listed as “Non-Toxic”.
The same measure, in the same setting: then `CS(=O)(=O)Nc1ccc2nc(NC(=O)Nc3ccc(O)c(Cl)c3)sc2c1`, with “Non-Toxic”; and `NS(=O)(=O)c1ccc2nc(NC(=O)Nc3ccc(O)c(Cl)c3)sc2c1`, with “Non-Toxic”; and `O=C(Nc1ccc(O)c(Cl)c1)Nc1nc2cc(C(=O)O)ccc2s1`, with “Non-Toxic”.
For the compound `CC(=O)Nc1ccc2nc(NCc3ccc(O)c(Cl)c3)sc2c1`, the Activity result in the data set on HEK293 was “Non-Toxic”.
Same read-out and setting: then `CC(=O)Nc1ccc2nc(N(CCc3ccc(O)c(Cl)c3)C(C)=O)sc2c1`, with “Non-Toxic”.
In general, IC50 refers to the concentration needed to halve the response being measured. For `NC(=O)Nc1ccc2nc(NC(=O)Nc3ccc(O)c(Cl)c3)sc2c1`, the results for the IC50 in data set [1] and in data set [2] were 330 nM and 270 nM, respectively. In the data set on HEK293, the Activity result is on record as “Non-Toxic”.
As to `O=C(Nc1ccc(O)c(Cl)c1)Nc1nc2ccc(C(=O)O)cc2s1`, the IC50 in data set [3] is 1810 nM.
For `CC(=O)Nc1ccc2nc(NC(=O)Nc3ccc(O)c(C(F)(F)F)c3)sc2c1`, in the data set on HEK293, the Activity result is “Non-Toxic”.
On the same count and under the same terms, then `O=C(O)c1ccc2nc(NCc3ccc(O)c(Cl)c3)sc2c1`, with “Non-Toxic”.
The same measure, in the same setting: the result for `O=C(O)c1ccc2nc(NC(=O)c3ccc(O)c(Cl)c3)sc2c1` reads “Non-Toxic”; that for `CC(=O)Nc1ccc2nc(NCCc3ccc(O)c(Cl)c3)sc2c1`, “Non-Toxic”.
Take `CC(=O)Nc1ccc2nc(NC(=O)Nc3ccc(O)c(Cl)c3)sc2c1`: the IC50 in data set [3] came out at 1150 nM.
With `O=C(O)c1ccc2nc(NCCc3ccc(O)c(Cl)c3)sc2c1`, in the data set on HEK293, the Activity result was “Non-Toxic”.
Regarding `O=C(Nc1ccc(O)c(C(F)(F)F)c1)Nc1nc2ccc(C(=O)O)cc2s1`, the concentration for half-maximal inhibition (IC50) in data set [1] turned out to be 250 nM; in data set [2] it was 340 nM. Also, the Activity entry with HEK293 is recorded as “Non-Toxic”.
The matching figures for `O=C(Nc1ccc(O)c(Cl)c1)Nc1nc2ccc(-c3nnn[nH]3)cc2s1`: 95 nM, 410 nM and “Non-Toxic”.

The values above are taken from ChEMBL document CHEMBL5390298, “Nanomolar Benzothiazole-Based Inhibitors of 17β-HSD10 with Cellular Bioactivity” (ACS Med Chem Lett, 2023).
